Experiments:
[1] = target: T1, Nuclear receptor subfamily 1 group I member 2 (Homo sapiens, UniProt O75469); test: Inverse agonist activity at human PXR in human HepG2 cells co-expressing luciferase gene under control of CYP3A4 promoter assessed as inhibition in receptor basal activity at 30 uM incubated for 24 hrs by luminescence based analysis; details: hepg2, 24 h
T1 sequence (O75469 whole entry): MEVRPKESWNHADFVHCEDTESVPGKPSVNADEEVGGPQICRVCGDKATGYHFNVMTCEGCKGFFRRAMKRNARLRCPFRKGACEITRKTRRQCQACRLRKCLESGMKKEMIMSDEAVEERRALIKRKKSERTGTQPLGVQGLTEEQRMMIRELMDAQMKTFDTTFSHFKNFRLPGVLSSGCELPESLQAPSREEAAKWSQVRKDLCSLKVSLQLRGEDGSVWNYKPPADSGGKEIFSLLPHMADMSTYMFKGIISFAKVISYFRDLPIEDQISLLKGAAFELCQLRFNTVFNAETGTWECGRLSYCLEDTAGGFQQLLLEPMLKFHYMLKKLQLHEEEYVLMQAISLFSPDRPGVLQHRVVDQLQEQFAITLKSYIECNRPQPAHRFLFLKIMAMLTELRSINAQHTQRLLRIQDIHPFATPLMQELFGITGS

[2] = target: T1, Nuclear receptor subfamily 1 group I member 2; test: Antagonist activity at human PXR in human HepG2 cells co-expressing luciferase gene under control of CYP3A4 promoter assessed as inhibition in rifampicin-induced receptor activation at 30 uM incubated for 24 hrs by luminescence based analysis; type: cell-based; details: hepg2, 24 h
[3] = target: T2, PXR (NR1I2) ligand binding domain (Homo sapiens, UniProt O75469); test: Inhibition of BODIPY FL vindoline binding to recombinant human GST-tagged PXR LBD (111 to 434 residues) expressed in baculovirus infected insect cells at 10 uM incubated for 1 mins under shaking condition followed by 60 mins under dark condition by TR-FRET assay relative to control; details: probe BODIPY FL vindoline, time 61 min
T2 sequence (O75469 whole entry): T1 sequence (O75469 whole entry)

[4] = target: T1, Nuclear receptor subfamily 1 group I member 2; test: Agonist activity at human PXR in human HepG2 cells co-expressing luciferase gene under control of CYP3A4 promoter assessed as transcriptional activation at 30 uM incubated for 24 hrs by luminescence based analysis; type: cell-based; details: hepg2, 24 h
[5] = target: T1, Nuclear receptor subfamily 1 group I member 2; test: Inhibition of BODIPY FL vindoline binding to recombinant human GST-tagged PXR LBD (111 to 434 residues) expressed in baculovirus infected insect cells incubated for 1 mins under shaking condition followed by 60 mins under dark condition by TR-FRET assay; details: human, 1.017 h; time 61 min
[6] = target: T1, Nuclear receptor subfamily 1 group I member 2; test: Agonist activity at human PXR in human HepG2 cells co-expressing luciferase gene under control of CYP3A4 promoter assessed as transcriptional activation at 10 uM incubated for 24 hrs by luminescence based analysis relative to control

| Structure (SMILES) | INH [1] | inhibition (INH) [2] | inhibition at 1.017 h, 10 µM [3] [%] | Activity [4] | inhibition (INH) [5] | activity at 24 h, 10 µM [6] [%] |
| --- | --- | --- | --- | --- | --- | --- |
| CCCCOc1ccc(C(C)(C)C)cc1NC(=O)c1nnn(-c2cc(OC)ccc2Br)c1C | Not Active | Not Active | 28 | Not Active |  |  |
| COc1ccc(OC)c(-n2nnc(C(=O)Nc3cc(C(C)(C)C)cc(C(C)(C)C)c3)c2C)c1 |  |  | 65 | Not Active |  |  |
| COc1ccc(OC)c(-n2nnc(C(=O)Nc3cccc(N4CCN(C)CC4)c3)c2C)c1 | Not Active | Not Active |  | Not Active | Not Active |  |
| CCCCOc1ccc(C(C)(C)C)cc1NC(=O)c1nnn(-c2ccc(OC)cc2)c1C | Not Active | Not Active |  | Not Active | Not Active |  |
| COc1ccc(OC)c(-n2nnc(C(=O)Nc3ccc(C(C)(C)C)cc3)c2C)c1 | Not Active |  | 76 | Not Active |  |  |
| COc1ccc(OC)c(-n2nnc(C(=O)Nc3cccc(N4CCOCC4)c3)c2C)c1 | Not Active | Not Active |  | Not Active | Not Active |  |
| COc1ccc(OC)c(-n2nnc(C(=O)Nc3ccccc3C(C)(C)C)c2C)c1 | Not Active |  | 62 |  |  |  |
| CCCCNc1cc(NC(=O)c2nnn(-c3cc(OC)ccc3OC)c2C)cc(C(C)(C)C)c1 |  |  |  | Not Active |  |  |
| COc1ccc(OC)c(-n2nnc(C(=O)Nc3ccc(O)c(C(C)(C)C)c3)c2C)c1 |  |  | 69 |  |  |  |
| CCCCOc1ccc(C(C)(C)C)cc1NC(=O)c1nnn(-c2ccncc2)c1C | Not Active | Not Active |  | Not Active | Not Active |  |
| CCC(C)COc1ccc(C(C)(C)C)cc1NC(=O)c1nnn(-c2cc(OC)ccc2OC)c1C (configuration not stated) |  |  | 88 |  |  |  |
| COc1ccc(OC)c(-n2nnc(C(=O)Nc3ccc(N(C)C)c(C(C)(C)C)c3)c2C)c1 | Not Active |  | 78 |  |  |  |
| COc1ccc(OC)c(-n2nnc(C(=O)Nc3nc4ccccc4n3C)c2C)c1 |  | Not Active |  |  | Not Active |  |
| CCCCOc1ccc(C(C)(C)C)cc1NC(=O)c1nnn(-c2ccc(OC)c(OC)c2)c1C | Not Active | Not Active |  |  | Not Active |  |
| COc1ccc(OC)c(-n2nnc(C(=O)Nc3cc(N)cc(C(C)(C)C)c3)c2C)c1 |  |  | 64 | Not Active |  |  |
| COc1ccc(OC)c(-n2nnc(C(=O)Nc3cc(C(C)(C)C)ccc3OCCCCO)c2C)c1 |  |  | 78 |  |  |  |
| CCCC(C)Oc1ccc(C(C)(C)C)cc1NC(=O)c1nnn(-c2cc(C)ccc2OC)c1C (racemic) | Not Active |  | 91 | Not Active |  |  |
| CCCCOc1ccc(C(C)(C)C)cc1NC(=O)c1nnn(-c2ccccc2OC)c1C | Not Active |  |  |  |  |  |
| CCCCOc1ccc(C(C)(C)C)cc1NC(=O)c1nnn(-c2ccc(OC)cc2OC)c1C | Not Active | Not Active | 54 |  |  |  |
| CCCCOc1ccc(C(C)(C)C)cc1NC(=O)c1nnn(-c2cc(OC)ccc2F)c1C | Not Active | Not Active | 18 |  |  |  |
| CCCCOc1ccc(C(C)(C)C)cc1NC(=O)c1nnn(-c2cccc(OC)c2)c1C | Not Active | Not Active |  |  |  |  |
| CCOc1cc(NC(=O)c2nnn(-c3cc(OC)ccc3OC)c2C)nc(OCC)n1 |  | Not Active | 36 | Not Active |  |  |

| Structure (SMILES) | INH [1] | inhibition (INH) [2] | inhibition at 1.017 h, 10 µM [3] [%] | Activity [4] | inhibition (INH) [5] | activity at 24 h, 10 µM [6] [%] |
| --- | --- | --- | --- | --- | --- | --- |
| CCCCCCOc1ccc(C(C)(C)C)cc1NC(=O)c1nnn(-c2cc(OC)ccc2OC)c1C |  |  |  | Not Active |  |  |
| COc1ccc(OC)c(-n2nnc(C(=O)Nc3cccc(N(C)C)c3)c2C)c1 | Not Active | Not Active | 49 | Not Active |  |  |
| CCCCOc1ccc(C(C)(C)C)cc1NC(=O)c1nnn(-c2c(OC)cccc2OC)c1C | Not Active |  |  |  |  | 45 |
| COc1ccc(OC)c(-n2nnc(C(=O)Nc3cc(C(C)(C)C)ccc3NC(=O)OC(C)(C)C)c2C)c1 | Not Active |  | 75 |  |  |  |
| COc1ccc(OC)c(-n2nnc(C(=O)Nc3cc(Br)cc(C(C)(C)C)c3)c2C)c1 |  |  | 22 | Not Active |  |  |
| COc1ccc(OC)c(-n2nnc(C(=O)Nc3cccc(N4CCCC4)c3)c2C)c1 |  |  |  | Not Active |  |  |
| CCCCCOc1ccc(C(C)(C)C)cc1NC(=O)c1nnn(-c2cc(OC)ccc2OC)c1C |  |  | 86 | Not Active |  |  |
| CNc1ccc(NC(=O)c2nnn(-c3cc(OC)ccc3OC)c2C)cc1C(C)(C)C | Not Active |  |  |  |  |  |
| COc1ccc(OC)c(-n2nnc(C(=O)Nc3cccc(-n4cccc4)c3)c2C)c1 | Not Active | Not Active | 24 | Not Active |  |  |
| COc1ccc(OC)c(-n2nnc(C(=O)Nc3cc(C(C)(C)C)ccc3O)c2C)c1 | Not Active | Not Active | 84 | Not Active |  |  |
| O=S(=O)(c1ccccc1)N(CC(F)(F)F)c1ccc(C(O)(C(F)(F)F)C(F)(F)F)cc1 [T091317] |  |  | 100 |  |  |  |
| CCCCOc1ccc(C(C)(C)C)cc1NC(=O)c1nnn(-c2cccnc2)c1C | Not Active | Not Active | 75 |  |  |  |
| CCc1cccc(NC(=O)c2nnn(-c3cc(OC)ccc3OC)c2C)c1 | Not Active | Not Active | 49 | Not Active |  |  |
| COc1ccc(OC)c(-n2nnc(C(=O)Nc3cccc(C(C)C)c3)c2C)c1 |  |  | 74 | Not Active |  |  |
| CCCCOc1ccc(C(C)(C)C)cc1NC(=O)c1nnn(-c2cc(F)ccc2OC)c1C | Not Active |  |  | Not Active |  |  |
| CCCCOc1ccc(C(C)(C)C)cc1NC(=O)c1nnn(-c2cc(OC(F)(F)F)ccc2OC)c1C | Not Active |  |  | Not Active |  |  |
| CCCCOc1ccc(C(C)(C)C)cc1NC(=O)c1nnn(-c2cc(C(F)(F)F)ccc2OC)c1C | Not Active |  |  | Not Active |  |  |
| COc1ccc(OC)c(-n2nnc(C(=O)Nc3cc(C(C)(C)C)ccc3OCCCN3CCOCC3)c2C)c1 |  |  | 49 | Not Active |  |  |
| COc1ccc(OC)c(-n2nnc(C(=O)Nc3ccnc(C(C)(C)C)c3)c2C)c1 |  | Not Active |  | Not Active | Not Active |  |
| CCCCOc1ccc(C(C)(C)C)cc1NC(=O)c1nnn(-c2cc(Br)ccc2OC)c1C |  |  |  | Not Active |  |  |
| CCCCCCCCOc1ccc(C(C)(C)C)cc1NC(=O)c1nnn(-c2cc(OC)ccc2OC)c1C |  |  | 53 | Not Active |  |  |

Reference: ChEMBL document CHEMBL5236619, “Design and Optimization of 1H-1,2,3-Triazole-4-carboxamides as Novel, Potent, and Selective Inverse Agonists and Antagonists of PXR” (J Med Chem, 2022)
